Experimental data taken from the supplement of paper PMC10307832.

Experiments:
Experiment in all cases: relative viability (nuclei count vs DMSO), 5 days (fraction); higher = more cells survive
[1] = compound: CCn1c(-c2nonc2N)nc2cnc(Oc3cccc(NC(=O)c4ccc(OCCN5CCOCC5)cc4)c3)cc21 + Cc1nc(Nc2ncc(C(=O)Nc3c(C)cccc3Cl)s2)cc(N2CCN(CCO)CC2)n1 [Dasatinib] (partner 0.075 µM)
Outline: (§1)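 Relative viability is defined as nuclei in treated wells over nuclei in vehicle wells. Duplicate plates were run and medians reported. Lung cancer cell lines in 1536-well plates were dosed by pin tool one day after seeding, with one drug or with a fixed anchor-drug dose plus five library-drug doses (not always all listed) in √10 steps, and nuclei were counted after 5 days.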

[2] = compound: CCC1=CN=CN=C1N2CCN(CC2)CC3=NC4=C(N3)C=C(C=C4)C(F)(F)F + O=C(c1cc(Cc2n[nH]c(=O)c3ccccc23)ccc1F)N1CCN(C(=O)C2CC2)CC1 [Olaparib] (partner 8 µM)
Outline: as §1

[3] = compound: CCn1c(-c2nonc2N)nc2cnc(Oc3cccc(NC(=O)c4ccc(OCCN5CCOCC5)cc4)c3)cc21 + Cc1nc(NC(=O)N2CCC[C@H]2C(N)=O)sc1-c1ccnc(C(C)(C)C(F)(F)F)c1 [Alpelisib] (partner 2 µM)
Outline: as §1

[4] = compound: CCC1=CN=CN=C1N2CCN(CC2)CC3=NC4=C(N3)C=C(C=C4)C(F)(F)F + C[C@]1(O)C[C@@H](c2nc(-c3ccc4ccc(-c5ccccc5)nc4c3)c3c(N)nccn32)C1 [Linsitinib] (partner 1 µM)
Outline: as §1

Cell Line	relative viability ([1]; first compound 0.04 µM)	relative viability ([1]; first compound 0.1265 µM)	relative viability ([1]; first compound 0.4 µM)	relative viability ([1]; first compound 1.265 µM)	relative viability ([1]; first compound 4 µM)	relative viability ([2]; first compound 0.04 µM)	relative viability ([2]; first compound 0.1265 µM)	relative viability ([2]; first compound 0.4 µM)	relative viability ([2]; first compound 1.265 µM)	relative viability ([2]; first compound 4 µM)	relative viability ([3]; first compound 0.1265 µM)	relative viability ([3]; first compound 0.4 µM)	relative viability ([3]; first compound 1.265 µM)	relative viability ([3]; first compound 4 µM)	relative viability ([4]; first compound 0.04 µM)	relative viability ([4]; first compound 0.1265 µM)	relative viability ([4]; first compound 0.4 µM)	relative viability ([4]; first compound 1.265 µM)	relative viability ([4]; first compound 4 µM)	relative viability ([3]; first compound 0.04 µM)
NCI-H2087	0.866	0.673	0.544	0.558	0.63	0.791	0.542	0.623	0.522	0.423	0.767	0.886	0.838	0.524	1.08	1.01	1.08	0.795	0.754	
RERF-LC-KJ	0.88	0.746	0.462	0.43	0.347	0.975	0.95	0.954	0.849	0.885	0.809	0.733	0.662	0.507	0.814	0.827	0.849	0.84	0.772	0.846
LOU-NH91	0.524	0.454	0.312	0.273	0.304	0.892	0.951	0.898	0.896	0.94	0.619	0.652	0.55	0.566	0.807	0.923	0.963	0.87	1.04	0.759
PC-3 [JPC-3]	0.981	0.902	0.605	0.728	0.648		1.02	1.13	1.02	0.977	1.02	1.01	1.07	1.05	0.972	0.882	0.969	0.906	0.911	1.1
NCI-H2126	0.628	0.522	0.284		0.336	0.913	0.877	0.856	0.927	0.901	0.703	0.728	0.822	0.789	0.666	0.696	0.725	0.614	0.733	0.804
LU99A	0.573	0.467	0.352	0.367	0.388	0.308	0.282	0.276	0.28	0.301	0.642	0.447	0.51	0.46	0.514	0.563	0.581	0.525	0.562	0.769
BEN	0.276	0.238	0.174	0.186	0.232	1.01	1.08	1.03	0.629	0.598	1.03	0.787	0.326	0.329	0.868	0.82	0.802	0.531	0.477	1.06
